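GI50 is the concentration that inhibits growth by half. Definition used: TGI = concentration required for complete inhibition of growth.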
How the values were obtained:
Experiment in all cases: NCI-60 cell line screen, 384-well format
MALME-3M melanoma = system: MALME-3M melanoma
NCI-H460 NSCLC = system: NCI-H460 NSCLC
NCI-H522 lung = system: NCI-H522 lung
MDA-MB-231 breast = system: MDA-MB-231 breast
IGROV1 ovarian = system: IGROV1 ovarian
A498 renal = system: A498 renal
SK-MEL-28 melanoma = system: SK-MEL-28 melanoma
NCI-H23 lung = system: NCI-H23 lung
BT-549 breast = system: BT-549 breast
SR leukemia = system: SR leukemia
MOLT-4 leukemia = system: MOLT-4 leukemia
ACHN renal = system: ACHN renal
SNB-75 CNS = system: SNB-75 CNS
NCI-H226 lung = system: NCI-H226 lung
SF-539 CNS = system: SF-539 CNS
T-47D breast = system: T-47D breast
MDA-MB-435 melanoma = system: MDA-MB-435 melanoma
SK-OV-3 ovarian = system: SK-OV-3 ovarian
SN12C renal = system: SN12C renal
HOP-62 NSCLC = system: HOP-62 NSCLC
UACC-62 melanoma = system: UACC-62 melanoma
M14 melanoma = system: M14 melanoma
UACC-257 melanoma = system: UACC-257 melanoma
HS 578T breast = system: HS 578T breast
NCI/ADR-RES ovarian = system: NCI/ADR-RES ovarian
SF-268 CNS = system: SF-268 CNS
SK-MEL-2 melanoma = system: SK-MEL-2 melanoma
HCT-15 colon = system: HCT-15 colon
RXF 393 renal = system: RXF 393 renal
HT29 colon = system: HT29 colon
SF-295 CNS = system: SF-295 CNS
OVCAR-8 ovarian = system: OVCAR-8 ovarian
U251 glioblastoma = system: U251 glioblastoma
NCI-H322M lung = system: NCI-H322M lung
CAKI-1 renal = system: CAKI-1 renal
OVCAR-3 ovarian = system: OVCAR-3 ovarian
DU-145 prostate = system: DU-145 prostate
MCF7 breast = system: MCF7 breast
KM12 colon = system: KM12 colon
HOP-92 NSCLC = system: HOP-92 NSCLC
HCC-2998 colon = system: HCC-2998 colon
SNB-19 CNS = system: SNB-19 CNS
A549 NSCLC = system: A549 NSCLC
MDA-MB-468 breast = system: MDA-MB-468 breast
SW-620 colon = system: SW-620 colon
CCRF-CEM leukemia = system: CCRF-CEM leukemia
PC-3 prostate = system: PC-3 prostate
HL-60(TB) leukemia = system: HL-60(TB) leukemia
786-0 renal = system: 786-0 renal
RPMI-8226 leukemia = system: RPMI-8226 leukemia
SK-MEL-5 melanoma = system: SK-MEL-5 melanoma
COLO 205 colon = system: COLO 205 colon
OVCAR-4 ovarian = system: OVCAR-4 ovarian
TK-10 renal = system: TK-10 renal
OVCAR-5 ovarian = system: OVCAR-5 ovarian
EKVX NSCLC = system: EKVX NSCLC

In the case of `CC(=O)c1cc2c(o1)C(=O)c1ccccc1C2=O`, the GI50 (MALME-3M melanoma) is reported as 148 nM, the TGI (MALME-3M melanoma) is reported as 280 nM and the GI50 (NCI-H460 NSCLC) is reported as 172 nM. It also gave a TGI (NCI-H460 NSCLC) of 314 nM, a GI50 (NCI-H522 lung) of 153 nM and a TGI (NCI-H522 lung) of 289 nM. For the same molecule, the GI50 (MDA-MB-231 breast) was 293 nM, the TGI (MDA-MB-231 breast) was 1200 nM and the GI50 (IGROV1 ovarian) was 1230 nM. For the same molecule, the TGI (IGROV1 ovarian) was 2490 nM, the GI50 (A498 renal) was 178 nM and the TGI (A498 renal) was 318 nM. For the same molecule, the GI50 (SK-MEL-28 melanoma) was 186 nM, the TGI (SK-MEL-28 melanoma) was 336 nM and the GI50 (NCI-H23 lung) was 33.2 nM. The TGI (NCI-H23 lung) was 138 nM, the GI50 (BT-549 breast) was 141 nM and the TGI (BT-549 breast) was 272 nM. The GI50 (SR leukemia) was 156 nM, the TGI (SR leukemia) was 295 nM and the GI50 (MOLT-4 leukemia) was 215 nM. It also gave a TGI (MOLT-4 leukemia) of 437 nM, a GI50 (ACHN renal) of 1310 nM and a TGI (ACHN renal) of 2590 nM. The GI50 (SNB-75 CNS) was 34.1 nM, the TGI (SNB-75 CNS) was 101 nM and the GI50 (NCI-H226 lung) was 166 nM. For the same molecule, the TGI (NCI-H226 lung) was 303 nM, the GI50 (SF-539 CNS) was 159 nM and the TGI (SF-539 CNS) was 296 nM. The GI50 (T-47D breast) was 198 nM, the TGI (T-47D breast) was 439 nM and the GI50 (MDA-MB-435 melanoma) was 156 nM. For the same molecule, the TGI (MDA-MB-435 melanoma) was 291 nM, the GI50 (SK-OV-3 ovarian) was 1030 nM and the TGI (SK-OV-3 ovarian) was 2210 nM. The GI50 (SN12C renal) was 165 nM, the TGI (SN12C renal) was 309 nM and the GI50 (HOP-62 NSCLC) was 37.5 nM. It also gave a TGI (HOP-62 NSCLC) of 133 nM, a GI50 (UACC-62 melanoma) of 168 nM and a TGI (UACC-62 melanoma) of 306 nM. The GI50 (M14 melanoma) was 168 nM, the TGI (M14 melanoma) was 306 nM and the GI50 (UACC-257 melanoma) was 126 nM. The TGI (UACC-257 melanoma) was 254 nM, the GI50 (HS 578T breast) was 179 nM and the TGI (HS 578T breast) was 319 nM. It also gave a GI50 (NCI/ADR-RES ovarian) of 215 nM, a TGI (NCI/ADR-RES ovarian) of 562 nM and a GI50 (SF-268 CNS) of 234 nM. For the same molecule, the TGI (SF-268 CNS) was 818 nM, the GI50 (SK-MEL-2 melanoma) was 269 nM and the TGI (SK-MEL-2 melanoma) was 434 nM. It also gave a GI50 (HCT-15 colon) of 157 nM, a TGI (HCT-15 colon) of 294 nM and a GI50 (RXF 393 renal) of 163 nM. The TGI (RXF 393 renal) was 326 nM, the GI50 (HT29 colon) was 175 nM and the TGI (HT29 colon) was 316 nM. For the same molecule, the GI50 (SF-295 CNS) was 126 nM, the TGI (SF-295 CNS) was 255 nM and the GI50 (OVCAR-8 ovarian) was 236 nM. For the same molecule, the TGI (OVCAR-8 ovarian) was 669 nM, the GI50 (U251 glioblastoma) was 194 nM and the TGI (U251 glioblastoma) was 503 nM. For the same molecule, the GI50 (NCI-H322M lung) was 177 nM, the TGI (NCI-H322M lung) was 317 nM and the GI50 (CAKI-1 renal) was 1030 nM. For the same molecule, the TGI (CAKI-1 renal) was 2210 nM, the GI50 (OVCAR-3 ovarian) was 165 nM and the TGI (OVCAR-3 ovarian) was 315 nM. The GI50 (DU-145 prostate) was 137 nM, the TGI (DU-145 prostate) was 268 nM and the GI50 (MCF7 breast) was 165 nM. The TGI (MCF7 breast) was 305 nM, the GI50 (KM12 colon) was 299 nM and the TGI (KM12 colon) was 1200 nM. The GI50 (HOP-92 NSCLC) was 363 nM, the TGI (HOP-92 NSCLC) was 1390 nM and the GI50 (HCC-2998 colon) was 160 nM. It also gave a TGI (HCC-2998 colon) of 305 nM, a GI50 (SNB-19 CNS) of 175 nM and a TGI (SNB-19 CNS) of 322 nM. The GI50 (A549 NSCLC) was 176 nM, the TGI (A549 NSCLC) was 317 nM and the GI50 (MDA-MB-468 breast) was 220 nM. For the same molecule, the TGI (MDA-MB-468 breast) was 565 nM, the GI50 (SW-620 colon) was 175 nM and the TGI (SW-620 colon) was 367 nM. The GI50 (CCRF-CEM leukemia) was 357 nM, the TGI (CCRF-CEM leukemia) was 1090 nM and the GI50 (PC-3 prostate) was 259 nM. It also gave a TGI (PC-3 prostate) of 1140 nM, a GI50 (HL-60(TB) leukemia) of 202 nM and a TGI (HL-60(TB) leukemia) of 347 nM. For the same molecule, the GI50 (786-0 renal) was 707 nM, the TGI (786-0 renal) was 2040 nM and the GI50 (RPMI-8226 leukemia) was 132 nM. It also gave a TGI (RPMI-8226 leukemia) of 374 nM, a GI50 (SK-MEL-5 melanoma) of 55.8 nM and a TGI (SK-MEL-5 melanoma) of 178 nM. The GI50 (COLO 205 colon) was 190 nM, the TGI (COLO 205 colon) was 336 nM and the GI50 (OVCAR-4 ovarian) was 156 nM. The TGI (OVCAR-4 ovarian) was 295 nM, the GI50 (TK-10 renal) was 1100 nM and the TGI (TK-10 renal) was 2290 nM. The GI50 (OVCAR-5 ovarian) was 149 nM, the TGI (OVCAR-5 ovarian) was 283 nM and the GI50 (EKVX NSCLC) was 363 nM. For the same molecule, the TGI (EKVX NSCLC) was 1470 nM.

— PubChem BioAssay (NCI)
